This note sets out measurements from patent publication US20250360130A1, “METHODS OF TREATING INDOLENT SYSTEMIC MASTOCYTOSIS” (Telios Pharma Inc., priority 2024, published 2025).

One test concerns basophils. Kind of test: Comparison of BTK inhibitors by BAT (CD63, CD203c). It is filed as cell-based, human. Particulars: concentration of 1 μM, 2 hours, blood from a healthy donor. Here is the method:
The BAT assay using the Flow Cast Basophil Activation Kit (Buhlmann Diagnostics; Catalog #B-CCR-STCON) was then conducted following manufacturer instructions by (1) stimulating the blood with anti-FcεR stimulation control in stimulation buffer with IL-3 and staining cells for CCR3 and CD63 for 15 minutes at 37° C., (2) lysing red blood cells and fixing cells with Lysing Reagent at room temperature for 10 minutes, (3) washing cells with Wash Buffer, and (4) acquiring data on a flow cytometer. Activated basophils were defined as CCR3+, low side scatter and CD63+. Percent of activated basophils was calculated as number of activated basophils over the total number of basophils. A four-parameter logistic regression was applied to determine the EC50 and EC90.
Blood samples were gently rocked at room temperature for 2 hours. […] Activated basophils were also defined as CCR3+, low side scatter and CD203c+.

Test [1] deals with human mast cells. Kind of test: Antigen-induced cytokine production in ISM-like and healthy mast cells. Type of test: cell-based. Particulars: two hours treatment, antigen four hours. Here is the method:
Human mast cells were derived from bone marrow CD34+ cells from six healthy donors for up to eight weeks by culturing CD34+ cells in StemSpan SFEM II (Stem Cell Technologies) supplemented with stem cell factor (SCF; 100 ng/mL; R&D System), IL-6 (R&D Systems), IL-3 (R&D Systems) and 1% penicillin/streptomycin (P/S; Gibco) for the first 10 days and in StemSpan SFEM II supplemented with SCF and IL-6 and 1% P/S for the remaining time in culture. […] Supernatant was collected and histamine levels were measured using a Histamine ELISA kit (Eagle Biosciences). […] Percent of activated mast cells was calculated as number of activated mast cells over the total number of mast cells.
Human mast cells were differentiated from bone marrow CD34+ cells from two healthy donors, cultured and sensitized in ISM-like and healthy mast cell conditions as set forth in Example 4, treated with Compound 128 for two hours and stimulated with antigen for four hours. Supernatant was collected and cytokine levels were measured using the BD Cytometric Bead Array (CBA) human soluble protein master buffer kit (Becton Dickinson) and BD CBA human soluble protein flex sets for IL-8, MCP-1, MIP-1a, IL-13 and IL-10 (Becton Dickinson). […]

In test [2] the test system is human mast cells. The experiment in a line: ISM-like mast cell chemotaxis towards conditioned media (Transwell). Type of test: cell-based. Particulars: conditioned media from ISM-like mast cells treated two hours. As to the method: Human mast cells were differentiated from bone marrow CD34+ cells from four healthy donors as set forth in Example 4. Cells were used to produce conditioned media in ISM-like conditions. Conditioned media was the supernatant collected from mast cells cultured with stem cell factor (100 ng/ml), sensitized with NP-IgE (0.1 μg/mL) for 18 hours, treated with Compound 128 for two hours, and stimulated with NP-BSA (antigen; 0.1 μg/mL) for four hours. Migration of mast cells in the top chamber on Transwell […] inserts (Corning) towards the antigen-stimulated conditioned media in the bottom chamber was quantified after four hours using the CellTiter-Glo™ Luminescent Cell Viability Assay Kit (Promega). The amount of luminescence is correlated with live cell numbers. Fold change over the non-activated control was calculated.

Another test has as its system mast cells. Kind of test: Monomeric IgE-mediated degranulation and cytokine production in mast cells. It is filed as cell-based, human. The following applies: mast cells from a healthy donor, 2 hours treatment, myeloma IgE with SCF. Here is the method: Mast cells from a healthy donor were starved of SCF for 18 hours and treated with Compound 128 for 2 hours. Mast cells were stimulated with SCF (100 ng/ml) or myeloma IgE (3 μg/ml; Millipore Sigma) alone or in combination for 30 minutes (CD63 and Histamine) or 24 hours (cytokine production), respectively. For the histamine and cytokine test, supernatant was collected and the levels of histamine and cytokines were measured as set forth in Example 4 for histamine and Example 7 for cytokines. For the CD63 test, the cells were stained for CD63, data was acquired on a flow cytometer and percent activated mast cells calculated as set forth in Example 4. […] The monomeric IgE contribution to degranulation and cytokine production is inhibited by Compound 128.

Consider `C=CC(=O)N1CCC(F)(CNc2ncnc(N)c2-c2ccc(Oc3ccccc3)cc2)CC1` [Compound 128, 1-(4-(((6-amino-5-(4-phenoxyphenyl)pyrimidin-4-yl)amino)methyl)-4-fluoropiperidin-1-yl)prop-2-en-1-one], for which, in the test with basophils, the “basophil activation (CD63+, CD203c+)” value is recorded as “fully inhibits basophil activation”. Besides, in the test with human mast cells [1], the “IgE-mediated cytokine production (IL-8, MCP-1, MIP-1a, IL-13, IL-10)” value is recorded as “inhibited”. Also, the “chemoattractant activity of mast cells (chemotaxis, fold change over non-activated control)” value in the test with human mast cells [2] is given as “inhibited”. For the same compound, the “monomeric IgE contribution to degranulation and cytokine production” value with mast cells is recorded as “inhibited”.
